Data from publication PMC10569044, “Methylation and Demethylation of Emerging Contaminants Changed Bioaccumulation and Acute Toxicity in Daphnia magna” (Environmental Science & Technology, 2023).
≈ marks a conversion by molar mass, not a printed value. Where two headings read alike, the source gives them in different places.

Key:
[1] = Protocol: The pH of the test medium in this study was measured to be 8.50 ± 0.10. The neutral fraction (fn) of the target compounds, their pH-adjusted octanol–water coefficients (log Dow), and their pH-adjusted lipid–water coefficients (log Dlipw) were calculated for this pH condition (Table 1). The calculation and related details are given in the Supporting Information (SI) in Text S1. […]
Text 1. Calculation of physicochemical property parameters
The pH of the artificial freshwater environment for D. magna was measured as […]. The fraction of neutral species (f n) for the test compounds was calculated as the following equation:1–3 […]
where i is 1 for acids and -1 for bases. The pH-adjusted octanol-water coefficient log

D. magna [2] = experiment: Interconversion (methylation/demethylation) in D. magna
D. magna [3] = details: for BCF in vivo (dynamic BCF): ku/kd; for ku (uptake rate constant): 24 h uptake phase; for BCF in vivo ratio / half-life in vivo ratio: methylated derivative over demethylated counterpart
in vivo [4] = details: Daphnia magna
Protocol: Preliminary tests were conducted for each target compound at widely spaced concentrations to identify the concentration range for deriving an accurate dose–response curve. The stock solutions of individual test compounds were prepared in methanol and diluted with 10 mL of aerated AFW to different concentrations in 20 mL glass vials. The methanol volume was set to 100 μL in each vial as the solvent carrier, and a control group containing 100 μL of methanol without the target compound was used as the carrier solvent control. Each test included at least five concentration levels, and the concentrations of test compounds in the medium were experimentally measured (SI, Table S1). Each treatment included four replicates. […] The obtained dose–response data were fitted to the Boltzmann equation:[24] [drawing 1] 1 where C is the measured concentration of the test compound.

D. magna [5] = details: in vivo
[6] = cited from earlier work; for pKa: measured value, ref CompTox Chemicals Dashboard; for logKow: measured values, ref PubChem
in vivo [7] = details: whole D. magna (wet weight), 1 mg L^–1, pH 8.5
H. azteca and G. pulex = details: cited from earlier work
[8] = end of uptake phase, 24 h, 1 mg L^–1 nominal
[9] = pH 8.50, calculated, crosschecked with ChemAxon
[10] = after 2 h of exposure, 1 mg L^–1 nominal

Row | SMILES | fn (neutral fraction) ([1]; pH 8.50, calculated) | BCF in vivo (dynamic BCF) (D. magna [3]; D. magna, 1 mg L^–1 nominal) | ku (uptake rate constant) (D. magna [3]; D. magna) [mL/min/kg] | LC50 at 48 h (in vivo [4]) [µg/mL] | logKow [6] | half-life (in vivo [7]) [h] | BCF in vivo ratio (D. magna [3]) | half-life in vivo ratio (D. magna [3]) | logDlipw ([1]; pH 8.50, calculated) | logDow [1, 9] | demethylation in D. magna (demethylated product in exposed D. magna) (D. magna [5]) | further results
1 | O=C1CN=C(c2ccccc2)c2cc(Cl)ccc2N1 [DM-diazepam, reference compound] | 1 | 9.8 ± 0.3 L kg^–1, w.w. | 20 ± 1.7 |  |  |  |  |  |  |  |  | molar equivalent of demethylated TP in D. magna (D. magna [2]; at the end of depuration): 33.5%
2 | O=C(O)c1ccc(O)cc1 [DM-methylparaben] | 0 | 0.9 ± 0.5 L kg^–1, w.w. | 5 ± 0 | 226 ± 17.3 (≈ 1630 µM) | 1.58 | 2.2 | 1.0 | 1.0 |  |  |  | molar equivalent of demethylated TP relative to methylated parent in D. magna (D. magna [5]; Daphnia magna, 12 h, pH 8.5): about 2.0%; molar equivalent of demethylated TP in D. magna (D. magna [5]; Daphnia magna, 24 h, pH 8.5): 54.8%; pKa [6]: 4.54; logDow ([1]; pH 8.5): -2.38; concentration in D. magna (D. magna [3]; [8]): 682.7 ± 91.5 ng g^–1 (w.w.)
3 | C[C@H](C(=O)O)c1ccc2cc(O)ccc2c1 [DM-naproxen] | 0 | 0 L kg^–1, w.w. |  | 67.9 ± 6 (≈ 314 µM) |  |  |  |  | −0.67 | -1.32 |  | formation rate of demethylated TP (D. magna [5]; Daphnia magna, pH 8.5): 1.5 ± 0.3 nmol g^–1 h^–1; logDlipw ([1]; pH 8.50, calculated, listed as DM-Naproxen): -0.67; level in D. magna (D. magna [3]; bioaccumulation experiment, 1 mg L^–1 nominal): below the LOD
4 | COc1ccc(NC(C)=O)cc1 [M-acetaminophen] | 1 | 10.0 ± 0.0 L kg^–1, w.w. | 288 ± 6.7 | 32.1 ± 5.7 (≈ 194 µM) | 1.03 | 0.4 | 33.3 | 0.4 | 1.45 | 1.03 | not detected | fold difference of concentration in D. magna vs acetaminophen (D. magna [3]; after 2 h of exposure): 28 fold; concentration in D. magna (D. magna [3]; [10]): 8730.7 ± 2900.9 ng g^–1 (w.w.); BCF in vivo ratio (D. magna [3]; listed as methylated acetaminophen): about 33
5 | CC(=O)Nc1ccc(O)cc1 [acetaminophen, reference compound] | 0.9 | 0.3 ± 0.0 L kg^–1, w.w. | 3.3 ± 0 |  | 0.46 | 1 | 1.0 | 1.0 |  |  |  | LC50 at 48 h (in vivo [4]; other: waterborne exposure in the test medium): 21.2 ± 2.4 µg/mL (≈ 140 µM); pKa [6]: 9.38; logDlipw ([1]; pH 8.5): 0.89; logDow ([1]; pH 8.5): 0.41; rise of BCF after methylation (D. magna [3]; D. magna, in vivo): approximately 33 fold; concentration in D. magna (D. magna [3]; [10]): 308.7 ± 42.6 ng g^–1 (w.w.)
6 | CN1C(=O)CN=C(c2ccccc2)c2cc(Cl)ccc21 [diazepam, reference compound] | 1 | 9.0 ± 0.4 L kg^–1, w.w. |  |  | 2.82 |  |  |  |  |  |  | demethylation in D. magna (demethylated product in exposed D. magna) (D. magna [2]; exposure to individual methylated compound): evident
7 | COC(=O)Cc1ccccc1Nc1c(Cl)cccc1Cl [methylated diclofenac] |  |  |  |  |  |  |  |  |  |  |  | bioaccumulation relative to diclofenac (H. azteca and G. pulex): 25–110 fold
8 | COC(=O)c1ccc(O)cc1 [methylparaben] | 0.41 | 2.8 ± 0.2 L kg^–1, w.w. | 12 ± 1.7 | 34.4 ± 4.3 (≈ 226 µM) |  | 2.7 |  |  | 1.93 | 1.57 | evident | concentration in D. magna (D. magna [3]; [8]): 2216.3 ± 85.7 ng g^–1 (w.w.)
9 | COc1ccc2cc([C@H](C)C(=O)O)ccc2c1 [naproxen, reference compound] |  | 1.5 ± 0.6 L kg^–1, w.w. |  |  |  |  |  |  |  |  | evident | 
